From patent US20050238727A1, “Coadministration of radiation, efaproxiral sodium, and supplemental oxygen for the treatment of cancer” (priority 2004, published 2005)

Columns and labels:
Format in all cases: in vivo, human
[1] = Resaturation time / supplemental oxygen requirement after efaproxiral sodium plus WBRT; conditions: majority of doses; patients with brain metastases from breast cancer
Method: Depending upon an individual patient's resaturation time (time required to recover to a stable≧90% SpO2 on room air) following efaproxiral sodium plus WBRT, supplemental oxygen use may be required for as little as 30 minutes to more than 4 hours. […] During this period of decreased oxygen saturation, patients require continuous SpO2 monitoring. If the desired SpO2 of≧90% while breathing room air is not achieved, supplemental oxygen is to be continued and increased to a flow of 6-8 L/min, if necessary, until the SpO2 while breathing room air is stabilized at≧90%.

[2] = Plasma and red blood cell (RBC) drug concentration during efaproxiral sodium administration
Method: Plasma and red blood cell (RBC) drug concentration were assayed on 2 days during the course of efaproxiral sodium administration: WBRT day 1 (end-infusion) and on 1 single day between WBRT days 6 and 10 (pre-infusion and end-infusion assays). Regression analysis was used to explore the relationship between trough and peak concentrations and continuous clinical covariates (eg, age, serum albumin, hematocrit, serum creatinine, etc). […] A dose of efaproxiral sodium was considered predicatably therapeutic if it achieved a sufficient, RBC concentration (>483 μg/ml), and corresponded to a predicted p50 shift of 10 mmHg.

[3] = Quality of life: Karnofsky Performance Status (KPS); conditions: for patients with stable or improving KPS scores: all randomized patients, N = 271
Method: (§1) Quality of life was determined by means of the Spitzer Questionnaire (SQ) and Kamofsky Performance Status (KPS) assessment. The tests were performed at baseline, at WBRT day 10, and at all routine follow-up visits. A sustained drop in the KPS score to less than 60 was defined as a significant drop. The 5 questions comprising the Spitzer Questionnaire were weighted evenly. For each evaluation with at least 3 out of 5 questions answered, an average score was computed for each patient. Questionnaires with fewer than 3 questions answered were treated as missing data. The protocol specified a sustained drop in the Spitzer Questionnaire score of 2 points constituted a significant drop.

[4] = Treatment-emergent adverse events in the controlled study
Method: Patients with brain metastases were administered efaproxiral sodium in a total dose of 0-100 mg/kg per day based on the dosing guidelines detailed above. In general, efaproxiral sodium is administered by intravenous infusion through a central venous access device over 30 minutes at a dose of 75 or 100 mg/kg daily with concurrent supplemental oxygen. Oxygen must be administered at 4 L/min via nasal cannula or facemask beginning 5 minutes prior to initiation of infusion, during infusion and WBRT, and for at least 15 minutes after completion of daily WBRT. Efaproxiral sodium is administered every day of a fractionated course of WBRT. Except when contraindicated, WBRT must be administered within 30 minutes of the end of the efaproxiral sodium infusion.
The patients were given the drug in one dose. Efaproxiral sodium was administered via central venous access with flow rate controlled by volumetric pump over a 30-45 minute interval with end-infusion no longer than 30 minutes prior to each radiation dose of a 10-day course of WBRT. Efaproxiral sodium was formulated as a sterile solution for injection and was supplied in single-use glass bottles containing 10 g efaproxiral sodium in 500 mL of 0.225% NaCl at a concentration of 20 mg/mL. Efaproxiral sodium was administered during the 10-day course of WBRT, for a maximum of 10 doses. A control group received radiation and supplemental oxygen only.
The majority of treatment-emergent adverse events were Grade 1 or 2 in severity, resolved spontaneously or within the duration of the study, and responded well to concomitant treatment with antiemetics for nausea/vomiting, nonsteroidal anti-inflammatory drugs for headache, supplemental oxygen for hypoxemia. […] Muscle weakness and dyspnea (reported in 3% of patients ) were the most commonly reported Grade 3 adverse events in Control patients and both events were reported as a Grade 4 event in 1 patient each. The most commonly reported Grade 4 adverse event in both treatment and control groups was disease progression (reported in 6% of both groups).

[5] = test system: brain metastases; assay: Survival of patients with brain metastases given efaproxiral sodium + WBRT + supplemental oxygen (controlled study RT-009)
Method: Patients with brain metastases were administered efaproxiral sodium in a total dose of 0-100 mg/kg per day based on the dosing guidelines detailed above. In general, efaproxiral sodium is administered by intravenous infusion through a central venous access device over 30 minutes at a dose of 75 or 100 mg/kg daily with concurrent supplemental oxygen. Oxygen must be administered at 4 L/min via nasal cannula or facemask beginning 5 minutes prior to initiation of infusion, during infusion and WBRT, and for at least 15 minutes after completion of daily WBRT. Efaproxiral sodium is administered every day of a fractionated course of WBRT. Except when contraindicated, WBRT must be administered within 30 minutes of the end of the efaproxiral sodium infusion. The patients were given the drug in one dose. Efaproxiral sodium was administered via central venous access with flow rate controlled by volumetric pump over a 30-45 minute interval with end-infusion no longer than 30 minutes prior to each radiation dose of a 10-day course of WBRT. Efaproxiral sodium was formulated as a sterile solution for injection and was supplied in single-use glass bottles containing 10 g efaproxiral sodium in 500 mL of 0.225% NaCl at a concentration of 20 mg/mL. Efaproxiral sodium was administered during the 10-day course of WBRT, for a maximum of 10 doses. A control group received radiation and supplemental oxygen only. Supplemental oxygen is administered at about 4 L/min via nasal cannula beginning about 5 minutes prior to initiation of infusion, during infusion and WBRT, and for at least about 15 minutes after completion of daily WBRT. If the desired SpO2 of greater than or equal to 90% while breathing room air is not achieved, supplemental oxygen is to be continued and increased to a flow of 6-8 L/min, if necessary, until the SpO2 while breathing room air is stabilized at greater than or equal to 90%. Plasma and red blood cell (RBC) drug concentration were assayed on 2 days during the course of efaproxiral sodium administration: WBRT day 1 (end-infusion) and on 1 single day between WBRT days 6 and 10 (pre-infusion and end-infusion assays). Regression analysis was used to explore the relationship between trough and peak concentrations and continuous clinical covariates (eg, age, serum albumin, hematocrit, serum creatinine, etc). […] A dose of efaproxiral sodium was considered predicatably therapeutic if it achieved a sufficient, RBC concentration (>483 μg/ml), and corresponded to a predicted p50 shift of 10 mmHg. One measurement of efficacy is the survival in the total patient population. For eligible patients, the observed mean survival time for the control group was 4.37 months as compared to 5.39 months for the efaproxiral sodium treated group.

[6] = test system: brain metastases; assay: Radiographic response of brain metastases (contrast enhanced MRI or CT, blinded central review)
From the text: Radiographic progression is defined by radiographic criteria only, based on a blinded central review. Determination of radiographic tumor progression in the brain was based on contrast enhanced MRI or CT scans taken at screening and compared to follow-up scans taken 1 month after the end of WBRT, 3 months after the end of WBRT, and every 3 months thereafter until death. Maximum bi-dimensional measurements (x=transverse, y=antero-posterior) were used to compute the bi-dimensional product and for determination of response and radiographic progression. Time to radiographic tumor progression in the brain was reported by means of Kaplan-Meier estimates. Gray's test (Gray R. A class of K-sample tests for comparing the cumulative incidence of a competing risk. Annals of Statistics […];16:1141-1154) was used to compare cumulative incidence between treatment and control groups. Potential competing risks for radiographic progression in the brain included death without progression and loss to follow-up. The date of tumor progression is defined as the date of radiographic documentation that any treated lesion in the brain is enlarged by more than 25% in the bi-dimensional product. The reference to “any treated lesion” mans that the lesion was present prior to RT.

[7] = Quality of life: Spitzer Questionnaire (SQ); conditions: all randomized patients, N = 271
Method: as §1

Cc1cc(C)cc(NC(=O)Cc2ccc(OC(C)(C)C(=O)O)cc2)c1 [efaproxiral sodium, 2-[4-(((3,5-dimethylanilino)carbonyl)methyl)phenoxy]-2-methylpropionic acid]
supplemental oxygen required after completion of WBRT [1]: one | drug accumulation ([2]; WBRT week 2 preinfusion concentrations in RBCs): No clinically relevant drug accumulation occurred | predicted p50 shift ([2]; at RBC concentration >483 μg/ml): 10 mmHg | change of concentration in RBCs with dose ([2]; patients dosed at 75 or 100 mg/kg): proportional increase | patients with stable or improving KPS scores ([3]; 1 month): 119 (44) n (%) | patients with stable or improving KPS scores ([3]; 3 months): 64 (24) n (%) | patients with stable or improving KPS scores ([3]; 6 months): 49 (18) n (%) | patients with stable or improving KPS scores ([3]; 12 months): 19 (7) n (%) | distribution of KPS score categories between treatment groups ([3]; breast primary patients, 6 months and 1 year (p=0.0046 and p=0.0070)): statistically significant difference | severity of the majority of treatment-emergent adverse events ([4]; controlled study): Grade 1 or 2 | Grade 4 hypoxemia ([4]; efaproxiral sodium-treated patients): no Grade 4 hypoxemia was reported | Grade 3 hypoxemia, patients reporting ([4]; efaproxiral sodium-treated patients, most commonly reported Grade 3 adverse event): 11% | Grade 4 disease progression, patients reporting ([4]; most commonly reported Grade 4 adverse event, same in control group): 6% | MST (median survival time) ([5]; All patients, <7 efaproxiral sodium doses): 2.96 (53) | MST (median survival time) ([5]; All patients, ≧7 efaproxiral sodium doses, <7 successful (RBC >483 μg/ml)): 4.93 (118) | MST (median survival time) ([5]; All patients, ≧7 efaproxiral sodium doses, ≧7 successful (RBC >483 μg/ml), p 0.001 vs Control): 6.90 (100) 0.001 | MST (median survival time) ([5]; Breast patients, <7 efaproxiral sodium doses): 3.52 (13) | MST (median survival time) ([5]; Breast patients, ≧7 efaproxiral sodium doses, <7 successful): 7.33 (22) | MST (median survival time) ([5]; Breast patients, ≧7 efaproxiral sodium doses, ≧7 successful, p 0.0002 vs Control): 25.72 (25) 0.0002 | MST (median survival time) ([5]; NSCLC patients, <7 efaproxiral sodium doses): 2.71 (30) | MST (median survival time) ([5]; NSCLC patients, ≧7 efaproxiral sodium doses, <7 successful): 4.73 (65) | MST (median survival time) ([5]; NSCLC patients, ≧7 efaproxiral sodium doses, ≧7 successful, p 0.0011 vs Control): 6.83 (53) 0.0011 | observed mean survival time ([5]; eligible patients, control group 4.37 months): 5.39 months | HR, survival distribution function, treatment versus control ([5]; patients with breast as site of primary, p=0.0061): 0.552 | estimated increase in radiographic response rate compared to Control ([6]; all randomized patients, 95% CI −0.4%-16.3%, p=0.0609): 7.9% | treatment effect for predicting response (logistic multiple regression) ([6]; breast primary patients, p=0.0209): statistically significant | patients with stable or improving SQ scores ([7]; 1 month): 115 (42) n (%) | patients with stable or improving SQ scores ([7]; 3 months): 62 (23) n (%) | patients with stable or improving SQ scores ([7]; 6 months): 43 (16) n (%) | patients with stable or improving SQ scores ([7]; 12 months): 24 (9) n (%)
